According to PubChem BioAssay (NCI):
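How tested: cells in 96-well plates exposed to compound for 48 hours at five concentrations. At the TGI there is no net growth.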

What was measured:
Test in all cases: NCI anticancer screen, dose series, 48 h
SN12C renal = system: SN12C renal
NCI-H460 lung = system: NCI-H460 lung
OVCAR-8 ovarian = system: OVCAR-8 ovarian
RPMI-8226 leukemia = system: RPMI-8226 leukemia
CCRF-CEM leukemia = system: CCRF-CEM leukemia
LOX IMVI melanoma = system: LOX IMVI melanoma
SNB-75 CNS = system: SNB-75 CNS
MDA-MB-231 breast = system: MDA-MB-231 breast
MDA-N = system: MDA-N
COLO 205 colon = system: COLO 205 colon
HCT-116 colon = system: HCT-116 colon
SNB-19 CNS = system: SNB-19 CNS
HOP-62 NSCLC = system: HOP-62 NSCLC
KM12 colon = system: KM12 colon
HCC-2998 colon = system: HCC-2998 colon
MDA-MB-435 = system: MDA-MB-435
A498 renal = system: A498 renal
SK-MEL-5 melanoma = system: SK-MEL-5 melanoma
SF-295 CNS = system: SF-295 CNS
OVCAR-4 ovarian = system: OVCAR-4 ovarian
UO-31 renal = system: UO-31 renal
SF-539 CNS = system: SF-539 CNS
M14 melanoma = system: M14 melanoma
HL-60(TB) leukemia = system: HL-60(TB) leukemia
SR leukemia = system: SR leukemia
NCI/ADR-RES ovarian = system: NCI/ADR-RES ovarian
HT29 colon = system: HT29 colon
HOP-92 NSCLC = system: HOP-92 NSCLC
OVCAR-5 ovarian = system: OVCAR-5 ovarian
BT-549 breast = system: BT-549 breast
EKVX NSCLC = system: EKVX NSCLC
ACHN renal = system: ACHN renal
K-562 leukemia = system: K-562 leukemia
SW-620 colon = system: SW-620 colon
UACC-62 melanoma = system: UACC-62 melanoma
786-0 renal = system: 786-0 renal
NCI-H23 lung = system: NCI-H23 lung
TK-10 renal = system: TK-10 renal
U251 CNS = system: U251 CNS
MCF7 breast = system: MCF7 breast
OVCAR-3 ovarian = system: OVCAR-3 ovarian
PC-3 prostate = system: PC-3 prostate
A549 NSCLC = system: A549 NSCLC
HS 578T breast = system: HS 578T breast
T-47D breast = system: T-47D breast
RXF 393 renal = system: RXF 393 renal
MOLT-4 leukemia = system: MOLT-4 leukemia
SF-268 CNS = system: SF-268 CNS
IGROV1 ovarian = system: IGROV1 ovarian
SK-OV-3 ovarian = system: SK-OV-3 ovarian
HCT-15 colon = system: HCT-15 colon
CAKI-1 renal = system: CAKI-1 renal
SK-MEL-2 melanoma = system: SK-MEL-2 melanoma
NCI-H522 lung = system: NCI-H522 lung
UACC-257 melanoma = system: UACC-257 melanoma
NCI-H226 lung = system: NCI-H226 lung
DU-145 prostate = system: DU-145 prostate
MALME-3M melanoma = system: MALME-3M melanoma
SK-MEL-28 melanoma = system: SK-MEL-28 melanoma

Measured: TGI

CCCCOC(=O)NC(c1ccccc1)C(O)C(=O)OC1C[C@@]2(O)C(OC(=O)c3ccccc3)C3[C@](C)(C(=O)[C@H](OC(C)=O)C(=C1C)C2(C)C)[C@@H](O)C[C@H]1OC[C@@]31OC(C)=O (stereo partly drawn)
0.0175 µM: SF-539 CNS
> 6.88 µM: OVCAR-3 ovarian
> 10 µM: SN12C renal | NCI-H460 lung | OVCAR-8 ovarian | CCRF-CEM leukemia | LOX IMVI melanoma | SNB-75 CNS | MDA-MB-231 breast | COLO 205 colon | HCT-116 colon | SNB-19 CNS | HOP-62 NSCLC | KM12 colon | SK-MEL-5 melanoma | SF-295 CNS | OVCAR-4 ovarian | UO-31 renal | M14 melanoma | SR leukemia | HOP-92 NSCLC | OVCAR-5 ovarian | BT-549 breast | EKVX NSCLC | ACHN renal | K-562 leukemia | SW-620 colon | UACC-62 melanoma | 786-0 renal | NCI-H23 lung | TK-10 renal | U251 CNS | MCF7 breast | PC-3 prostate | A549 NSCLC | T-47D breast | SF-268 CNS | IGROV1 ovarian | SK-OV-3 ovarian | HCT-15 colon
0.0755 µM: RXF 393 renal
0.595 µM: HCC-2998 colon
0.0241 µM: MDA-MB-435
0.0663 µM: A498 renal
> 6.5 µM: NCI/ADR-RES ovarian
0.0113 µM: MDA-N
0.00741 µM: HL-60(TB) leukemia
> 7.96 µM: RPMI-8226 leukemia
6.81 µM: HT29 colon
> 9.14 µM: MOLT-4 leukemia
0.0469 µM: HS 578T breast

COc1cc2c(c(OC)c1OC)-c1ccc(SC)c(=O)cc1[C@@H](OC(=O)c1ccncc1)CC2
> 39.1 µM: SR leukemia
21.4 µM: A498 renal
> 35.7 µM: LOX IMVI melanoma
> 40.3 µM: 786-0 renal
> 32.1 µM: UACC-62 melanoma
> 35 µM: HCT-116 colon
22.8 µM: BT-549 breast
> 56.5 µM: HS 578T breast
49.3 µM: SF-268 CNS
52.6 µM: UO-31 renal
23.2 µM: CAKI-1 renal
39.5 µM: NCI-H522 lung
56.7 µM: M14 melanoma
21.9 µM: OVCAR-3 ovarian
15.4 µM: SK-MEL-5 melanoma
> 100 µM: OVCAR-8 ovarian | SNB-75 CNS | MDA-MB-231 breast | MDA-N | COLO 205 colon | SNB-19 CNS | HOP-62 NSCLC | SK-MEL-2 melanoma | OVCAR-4 ovarian | HL-60(TB) leukemia | HOP-92 NSCLC | OVCAR-5 ovarian | EKVX NSCLC | K-562 leukemia | SW-620 colon | NCI-H23 lung | U251 CNS | MCF7 breast | PC-3 prostate | A549 NSCLC | T-47D breast | MOLT-4 leukemia
> 46.8 µM: IGROV1 ovarian
24 µM: UACC-257 melanoma
11.2 µM: NCI-H460 lung
> 62.7 µM: DU-145 prostate
31.2 µM: ACHN renal
11.6 µM: HCC-2998 colon
43.7 µM: SK-OV-3 ovarian
> 82.9 µM: RXF 393 renal
55.3 µM: TK-10 renal
< 0.01 µM: SF-295 CNS | SF-539 CNS | NCI/ADR-RES ovarian | HT29 colon | NCI-H226 lung
46.8 µM: CCRF-CEM leukemia

COC(=O)C(=O)C(C(=O)OC)C(=O)C(=O)Nc1ccccc1C(N)=O (stereo not drawn)
> 100 µM: SN12C renal | OVCAR-8 ovarian | RPMI-8226 leukemia | CCRF-CEM leukemia | LOX IMVI melanoma | SNB-75 CNS | MDA-MB-231 breast | MDA-N | CAKI-1 renal | MALME-3M melanoma | HCT-116 colon | SNB-19 CNS | HOP-62 NSCLC | KM12 colon | HCC-2998 colon | MDA-MB-435 | SK-MEL-2 melanoma | A498 renal | SK-MEL-5 melanoma | SF-295 CNS | OVCAR-4 ovarian | UO-31 renal | SF-539 CNS | M14 melanoma | HL-60(TB) leukemia | SR leukemia | NCI/ADR-RES ovarian | HT29 colon | HOP-92 NSCLC | OVCAR-5 ovarian | BT-549 breast | NCI-H522 lung | EKVX NSCLC | UACC-257 melanoma | SK-MEL-28 melanoma | ACHN renal | SW-620 colon | UACC-62 melanoma | NCI-H226 lung | 786-0 renal | NCI-H23 lung | TK-10 renal | U251 CNS | MCF7 breast | OVCAR-3 ovarian | PC-3 prostate | A549 NSCLC | HS 578T breast | T-47D breast | RXF 393 renal | MOLT-4 leukemia | SF-268 CNS | IGROV1 ovarian | SK-OV-3 ovarian | HCT-15 colon
